The MIC is the lowest concentration found to suppress growth. Low readings indicate inhibition by little substance, high ones a need for much substance. Broadly, the MIC90 is the lowest concentration that inhibits either 90% of growth or 90% of the strains tested, depending on the study. A low value points to greater potency. The term MBC denotes the lowest tested concentration that kills the bacteria rather than only halting them. A high value points to weaker bactericidal potency. Usually ED50 stands for the midpoint of the dose-response relation. The low end stands for greater potency, the high end for weaker potency. What is called IC50 is the midpoint of a concentration-inhibition curve. Read a low IC50 as greater potency in that assay.

These results are taken from ChEMBL document CHEMBL1649541, “Molecular basis and phenotype of methicillin resistance in Staphylococcus aureus and insights into new beta-lactams that meet the challenge” (Antimicrob Agents Chemother, 2009).

The test system of assay [1] is Staphylococcus aureus. The assay is described as follows: Antimicrobial activity against methicillin-susceptible Staphylococcus aureus ATCC 29213 by M7-A7 dilution method. Format: functional.
Assay [2] concerns Staphylococcus aureus. Nature of the assay: Antimicrobial activity against methicillin-resistant Staphylococcus aureus. The class given is functional.
The test system of assay [3] is Staphylococcus aureus. The assay is described as follows: Bactericidal activity against methicillin-resistant Staphylococcus aureus. The class given is functional.
In assay [4] the test system is Staphylococcus aureus. The assay is described as follows: Ratio of MBC to MIC for methicillin-resistant Staphylococcus aureus. The class given is functional.
Assay [5] deals with Staphylococcus aureus. Nature of the assay: Antimicrobial activity against methicillin-resistant Staphylococcus aureus in mouse systemic infection model. Format: functional.
For assay [6], the target named is T1, Penicillin-binding protein 1 (Staphylococcus aureus, UniProt Q53725).
T1 sequence (Q53725 whole entry): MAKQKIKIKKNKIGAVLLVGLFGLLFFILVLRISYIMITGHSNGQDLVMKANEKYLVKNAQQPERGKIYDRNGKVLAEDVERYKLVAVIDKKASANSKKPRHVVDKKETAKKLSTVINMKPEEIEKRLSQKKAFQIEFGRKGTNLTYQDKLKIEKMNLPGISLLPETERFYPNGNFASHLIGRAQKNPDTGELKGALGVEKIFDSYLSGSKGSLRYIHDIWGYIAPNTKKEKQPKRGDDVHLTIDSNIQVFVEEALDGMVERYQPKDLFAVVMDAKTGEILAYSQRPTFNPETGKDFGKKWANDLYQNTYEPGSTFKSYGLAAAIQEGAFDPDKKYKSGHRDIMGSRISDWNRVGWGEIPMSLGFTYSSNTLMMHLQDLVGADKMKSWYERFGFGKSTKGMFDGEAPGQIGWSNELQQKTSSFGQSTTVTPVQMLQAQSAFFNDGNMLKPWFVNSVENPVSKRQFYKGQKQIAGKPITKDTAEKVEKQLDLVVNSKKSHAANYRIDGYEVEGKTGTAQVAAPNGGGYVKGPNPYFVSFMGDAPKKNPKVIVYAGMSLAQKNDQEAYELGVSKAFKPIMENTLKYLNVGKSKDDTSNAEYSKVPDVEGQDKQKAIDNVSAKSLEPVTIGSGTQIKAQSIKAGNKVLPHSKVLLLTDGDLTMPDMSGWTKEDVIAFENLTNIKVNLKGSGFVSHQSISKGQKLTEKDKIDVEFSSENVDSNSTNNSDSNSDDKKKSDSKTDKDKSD
The assay is described as follows: Inhibition of methicillin-susceptible Staphylococcus aureus ATCC 29213 PBP 1.

For assay [7], the target named is T2, Penicillin-binding protein 2 (Staphylococcus aureus, UniProt Q53729).
T2 sequence (Q53729 whole entry): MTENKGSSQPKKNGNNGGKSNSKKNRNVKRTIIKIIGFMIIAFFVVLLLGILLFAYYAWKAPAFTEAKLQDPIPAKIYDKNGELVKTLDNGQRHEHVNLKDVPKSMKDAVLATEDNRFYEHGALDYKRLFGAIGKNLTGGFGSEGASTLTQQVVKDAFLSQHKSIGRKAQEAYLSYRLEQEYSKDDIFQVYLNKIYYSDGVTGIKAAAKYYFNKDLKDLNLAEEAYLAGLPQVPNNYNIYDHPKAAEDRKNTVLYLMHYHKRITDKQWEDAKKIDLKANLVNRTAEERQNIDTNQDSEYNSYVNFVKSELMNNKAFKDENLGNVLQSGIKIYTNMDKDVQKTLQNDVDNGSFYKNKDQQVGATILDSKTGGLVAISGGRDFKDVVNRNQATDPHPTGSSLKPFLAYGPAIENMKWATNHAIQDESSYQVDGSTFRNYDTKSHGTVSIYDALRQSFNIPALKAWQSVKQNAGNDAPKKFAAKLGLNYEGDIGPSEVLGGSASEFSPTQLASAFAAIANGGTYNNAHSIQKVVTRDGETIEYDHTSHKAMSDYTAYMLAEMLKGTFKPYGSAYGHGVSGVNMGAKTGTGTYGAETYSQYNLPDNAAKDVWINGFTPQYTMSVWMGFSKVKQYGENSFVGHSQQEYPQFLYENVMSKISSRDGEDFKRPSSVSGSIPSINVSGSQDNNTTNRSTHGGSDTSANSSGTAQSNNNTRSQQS
The assay is described as follows: Inhibition of methicillin-susceptible Staphylococcus aureus ATCC 29213 PBP 2.

Assay [8] deals with T3, Penicillin-binding protein 2b (Staphylococcus aureus, UniProt Q9XDB3).
T3 sequence (Q9XDB3 whole entry): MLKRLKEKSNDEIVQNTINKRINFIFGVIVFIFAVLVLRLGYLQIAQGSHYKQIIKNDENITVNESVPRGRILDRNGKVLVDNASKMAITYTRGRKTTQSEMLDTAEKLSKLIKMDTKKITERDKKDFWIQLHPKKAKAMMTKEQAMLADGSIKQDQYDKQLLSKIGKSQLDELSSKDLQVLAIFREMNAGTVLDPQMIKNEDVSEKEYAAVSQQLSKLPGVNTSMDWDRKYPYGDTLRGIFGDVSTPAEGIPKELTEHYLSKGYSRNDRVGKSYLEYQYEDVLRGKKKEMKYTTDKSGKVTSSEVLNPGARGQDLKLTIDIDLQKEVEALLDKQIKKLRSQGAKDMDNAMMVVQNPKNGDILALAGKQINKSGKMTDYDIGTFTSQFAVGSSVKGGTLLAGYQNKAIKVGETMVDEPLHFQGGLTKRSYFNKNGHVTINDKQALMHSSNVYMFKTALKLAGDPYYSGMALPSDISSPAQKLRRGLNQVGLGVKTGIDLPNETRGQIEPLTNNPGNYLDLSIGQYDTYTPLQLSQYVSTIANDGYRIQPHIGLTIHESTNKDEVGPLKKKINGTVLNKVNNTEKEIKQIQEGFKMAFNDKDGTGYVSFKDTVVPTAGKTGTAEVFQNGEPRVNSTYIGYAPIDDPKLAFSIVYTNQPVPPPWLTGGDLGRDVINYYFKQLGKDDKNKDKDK
The assay is described as follows: Inhibition of methicillin-susceptible Staphylococcus aureus ATCC 29213 PBP 3.

In assay [9] the target is T4, Penicillin-binding protein 4 (Staphylococcus aureus, UniProt P72355).
T4 sequence (P72355 whole entry): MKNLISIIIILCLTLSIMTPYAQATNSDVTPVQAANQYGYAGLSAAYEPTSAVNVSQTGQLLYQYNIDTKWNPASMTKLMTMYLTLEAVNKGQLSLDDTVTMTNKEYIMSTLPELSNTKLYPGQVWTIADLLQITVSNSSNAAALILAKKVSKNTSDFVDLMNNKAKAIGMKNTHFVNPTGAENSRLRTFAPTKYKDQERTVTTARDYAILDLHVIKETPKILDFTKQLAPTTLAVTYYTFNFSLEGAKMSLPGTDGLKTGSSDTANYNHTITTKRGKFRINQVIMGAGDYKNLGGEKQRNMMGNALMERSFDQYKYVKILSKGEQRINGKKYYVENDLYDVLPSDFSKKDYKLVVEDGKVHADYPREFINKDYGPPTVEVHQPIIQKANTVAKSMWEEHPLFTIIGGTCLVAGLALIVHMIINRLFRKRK
Nature of the assay: Inhibition of methicillin-susceptible Staphylococcus aureus ATCC 29213 PBP 4.

Assay [10] has as its target T5, MecA (Staphylococcus aureus, UniProt Q7DHH4).
T5 sequence (Q7DHH4 whole entry): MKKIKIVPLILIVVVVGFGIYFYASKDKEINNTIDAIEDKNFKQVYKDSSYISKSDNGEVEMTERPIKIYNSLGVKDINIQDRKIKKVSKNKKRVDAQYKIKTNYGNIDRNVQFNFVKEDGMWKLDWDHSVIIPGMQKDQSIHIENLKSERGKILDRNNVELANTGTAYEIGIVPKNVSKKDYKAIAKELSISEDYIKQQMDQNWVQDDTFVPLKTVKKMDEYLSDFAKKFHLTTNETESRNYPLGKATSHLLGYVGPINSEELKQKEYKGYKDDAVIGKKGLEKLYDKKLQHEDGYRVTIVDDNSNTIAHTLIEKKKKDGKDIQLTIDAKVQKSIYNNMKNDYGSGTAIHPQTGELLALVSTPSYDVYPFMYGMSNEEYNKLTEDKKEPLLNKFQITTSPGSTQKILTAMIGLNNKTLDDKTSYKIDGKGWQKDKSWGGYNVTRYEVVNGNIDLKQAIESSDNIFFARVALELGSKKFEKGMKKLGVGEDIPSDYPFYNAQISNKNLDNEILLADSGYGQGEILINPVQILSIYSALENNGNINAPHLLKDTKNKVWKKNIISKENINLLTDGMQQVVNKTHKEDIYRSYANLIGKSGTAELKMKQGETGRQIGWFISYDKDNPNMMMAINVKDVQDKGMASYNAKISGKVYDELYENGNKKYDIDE
The assay is described as follows: Inhibition of methicillin-resistant Staphylococcus aureus OC 3726 PBP 2a.

Assay [11] deals with Staphylococcus aureus. The assay is described as follows: Antimicrobial activity against methicillin-resistant Staphylococcus aureus infected in patient with complicated skin and skin structure infection assessed as cure rate at 500 mg/kg, iv administered every 12 hrs. The class given is functional.
Assay [12] has as its system Staphylococcus aureus. Nature of the assay: Antimicrobial activity against methicillin-resistant Staphylococcus aureus infected in patient with complicated skin and skin structure infection assessed as cure rate at 1 g/kg, iv administered every 12 hrs. The class given is functional.
For assay [13], the target named is T5, MecA. The assay is described as follows: Inhibition of methicillin-resistant Staphylococcus aureus PBP 2a.
For assay [14], the system named is Staphylococcus aureus. The assay is described as follows: Antimicrobial activity against methicillin-resistant Staphylococcus aureus ATCC 29213 by CLSI method. Format: functional.
Assay [15] deals with T1, Penicillin-binding protein 1. The assay is described as follows: Binding affinity to methicillin-susceptible Staphylococcus aureus PBP 1.
Assay [16] concerns the target T2, Penicillin-binding protein 2. The assay is described as follows: Binding affinity to methicillin-susceptible Staphylococcus aureus PBP 2.
Assay [17] has as its target T3, Penicillin-binding protein 2b. Nature of the assay: Binding affinity to methicillin-susceptible Staphylococcus aureus PBP 3.
The target in assay [18] is T4, Penicillin-binding protein 4. Nature of the assay: Binding affinity to methicillin-susceptible Staphylococcus aureus PBP 4.
Assay [19] relates to Staphylococcus aureus. The assay is described as follows: Antimicrobial activity against vancomycin-intermediate Staphylococcus aureus. Format: functional.
Assay [20] has as its system Staphylococcus aureus. The assay is described as follows: Antimicrobial activity against vancomycin-resistant Staphylococcus aureus. Format: functional.
Assay [21] deals with Staphylococcus aureus. The assay is described as follows: Antimicrobial activity against daptomycin-nonsusceptible Staphylococcus aureus. Format: functional.
In assay [22] the test system is Staphylococcus aureus. The assay is described as follows: Antimicrobial activity against community-acquired Staphylococcus aureus. Format: functional.
Assay [23] has as its target T5, MecA. The assay is described as follows: Binding affinity to methicillin-resistant Staphylococcus aureus MF535HR PBP 2a by competitive binding assay.

Values after ≈ are worked out from the molar mass of the structure shown. Bounds are passed on as bounds.

Consider `CO/N=C(\C(=O)N[C@@H]1C(=O)N2C(C(=O)O)=C(CSc3nc(=O)c(O)nn3C)CS[C@H]12)c1csc(N)n1` [CEFTRIAXONE], for which the MIC in assay [1] was more than 64 µg/mL.
In assay [2], `C[C@H]1C=C(c2csc(SC3=C(C(=O)O)N4C(=O)[C@H]([C@@H](C)O)[C@H]4[C@H]3C)n2)CN1` [RAZUPENEM] gave an MIC90 of 2 µg/mL (≈ 4.91 µM). In assay [3], this compound came in with an MBC of 0.5 µg/mL (≈ 1.23 µM). Moreover, the Ratio in assay [4] turned out to be 1. For the same compound, the ED50 in assay [5] was found to be 4.7 mg/kg.
`CC(=O)NC[C@H]1CN(c2ccc(N3CCOCC3)c(F)c2)C(=O)O1` [LINEZOLID] returned an ED50 in [5] of 7.4 mg/kg.
For `Cc1oc(=O)oc1COC(=O)N1CC[C@@H](N2CC/C(=C\C3=C(C(=O)O)N4C(=O)[C@@H](NC(=O)/C(=N/O)c5nsc(N)n5)[C@H]4SC3)C2=O)C1` [CEFTOBIPROLE MEDOCARIL FREE ACID], the IC50 in assay [6] is 145 nM; in assay [7] it was 724 nM; in assay [8], 72.4 nM; in [9], 1450 nM; in assay [10] it was 1300 nM. In assay [1], the lowest concentration to inhibit growth (MIC) was 2 µg/mL (≈ 2.9 µM). Also, the Activity is 92% in [11] and 90% in assay [12].
As for `CC(C)(O/N=C(\C(=O)N[C@@H]1C(=O)N2C(C(=O)[O-])=C(C[n+]3ccccc3)CS[C@H]12)c1csc(N)n1)C(=O)O` [CEFTAZIDIME], the MIC in assay [1] was more than 128 µg/mL.
In turn, `CN[C@H](CC(C)C)C(=O)N[C@H]1C(=O)N[C@@H](CC(N)=O)C(=O)N[C@H]2C(=O)N[C@H]3C(=O)N[C@H](C(=O)N[C@H](C(=O)O)c4cc(O)cc(O)c4-c4cc3ccc4O)[C@H](O)c3ccc(c(Cl)c3)Oc3cc2cc(c3O[C@@H]2O[C@H](CO)[C@@H](O)[C@H](O)[C@H]2O[C@H]2C[C@](C)(N)[C@H](O)[C@H](C)O2)Oc2ccc(cc2Cl)[C@H]1O` [VANCOMYCIN] came in with an ED50 in [5] of 6 mg/kg.
As for `CCO/N=C(\C(=O)N[C@@H]1C(=O)N2C(C(=O)[O-])=C(Sc3nc(-c4cc[n+](C)cc4)cs3)CS[C@H]12)c1nsc(NP(=O)(O)O)n1` [CEFTAROLINE FOSAMIL], the IC50 is 234 nM in assay [13]; 146 nM in assay [15]; 49.7 nM in assay [16]; 71.6 nM in assay [17]; more than 1460 nM in assay [18]. Moreover, the MIC stood at 0.25 µg/mL (≈ 0.365 µM) in assay [14], 0.12 µg/mL (≈ 0.175 µM) in [20] and 0.5 µg/mL (≈ 0.73 µM) in [21]. For the same compound, the MIC90 in assay [19] and in [22] was 1 µg/mL (≈ 1.46 µM) in each case.
As to `C[C@@H](O)[C@H]1C(=O)N2C(C(=O)[O-])=C(c3cn4cnc(C(=O)c5ccc[n+](CC(N)=O)c5)c4s3)[C@H](C)[C@H]12`, the IC50 in assay [23] is 262 nM.
